US20230339854A1, “Negative Allosteric Modulation of GluN3-Containing N-Methyl-D-Aspartate Receptors” (Emory University, priority 2020, published 2023)

The compounds below were run against T1, human GluN1^FA,TL/GluN3A receptors (Homo sapiens, UniProt Q8TCU5) (assay: Two-electrode voltage-clamp recordings of GluN1^FA,TL/GluN3A receptors in Xenopus oocytes). Settings: 30 μM drug.
T1 construct: Human GluN3A (NP_597702.2) and rat GluN3B (NP_579842.2) were synthesized and subcloned into SP6 plasmids; expressed in transfected cells; host or cells: Xenopus laevis oocytes, cRNA injection (GluN1:GluN3 1:3)
Type: cell-based
Text: cDNA encoding human wild-type (WT) GluN1-1a (GenBank accession numbers NP_015566, hereafter GluN1) and rat GluN1-1a (NP_058706.1) were synthesized and subcloned into pGEMHE plasmid; some experiments used the rat splice variant GluN1-4a (NP_001257531.1). Human GluN3A (NP_597702.2) and rat GluN3B (NP_579842.2) were synthesized and subcloned into SP6 plasmids. For most experiments, human GluN1 was co-expressed with human GluN3A, except for mutagenesis experiments where rat GluN1 was co-expressed with human GluN3A. Rat GluN1-4a was always expressed with rat GluN3B.
Defolliculated Xenopus laevis oocytes (stage V-VI) were obtained from Ecocyte BioScience (Austin, Texas), or prepared from commercially available Xenopus ovaries (Xenopus 1, Dexter, MI) as previously described (Hansen, et al., Mol. Pharmacol., 2013). A Drummond Nanoject II (Broomall, PA) was used to inject oocytes with cRNAs encoding GluN1 and GluN3 at a 1:3 ratio in RNase-free water. The cRNA was diluted as needed to give responses with amplitudes ranging between 200-2000 nA (0.2-10 ng total cRNA). Following cRNA injection, the oocytes were stored at 15-19° C. in Barth's solution that contained (in mM) 88 NaCl, 2.4 NaHCO3, 1 KCl, 0.33 Ca(NO3)2, 0.41 CaCl2), 0.82 MgSO4, and 5 Tris-HCl (pH 7.4 with NaOH), supplemented with 1 μg/ml streptomycin (Invitrogen, Carlsbad, CA) and 100 μg/ml gentamicin (Fisher Scientific, Pittsburgh, PA). Recordings were performed 2-5 days following cRNA microinjection at room temperature (23° C.) using a two-electrode voltage-clamp amplifier (OC725, Warner Instrument, Hamilton, CT). The signal was low-pass filtered at 10-20 Hz (4-pole, −3 dB Bessel) and digitized at the Nyquist rate using PCI-6025E or USB-6212 BNC data acquisition boards (National Instruments, Austin, TX) using EasyOocyte (http://www.easyoocyte.io/). Oocytes were placed in a custom-made chamber and continuously perfused (2.5 ml/min) with oocyte recording solution containing (in mM) 90 NaCl, 1 KCl, 10 HEPES, 0.5-1.0 BaCl2, and 0.01 EDTA (pH 7.4 with NaOH). Solutions were applied by gravity, and solution exchange was controlled through a rotary valve (Hamilton, Reno, NV). Recording electrodes were filled with 0.3-3.0 M KCl, and current responses were recorded at a holding potential of −40 mV.
Response (%)=(100−minimum)/(1+([concentration]/IC50)^nH)+minimum (2) • where nH is the Hill slope, IC50 is the concentration that produces a half-maximal effect, and minimum is the degree of residual inhibition at a saturating concentration of the negative allosteric modulator.
The afore-referenced compounds were screened in the same assay as EU1180-438 to determine their effects on hGluN1^FA,TL/hGluN3A receptors. Selected compounds that inhibited by more than 20% at the concentration at which they were initially evaluated (either 10 or 30 μM) were analyzed further, and a dose-response curve was generated to determine their IC50 values.

T1 sequence (Q8TCU5 24-1115, other chains not shown): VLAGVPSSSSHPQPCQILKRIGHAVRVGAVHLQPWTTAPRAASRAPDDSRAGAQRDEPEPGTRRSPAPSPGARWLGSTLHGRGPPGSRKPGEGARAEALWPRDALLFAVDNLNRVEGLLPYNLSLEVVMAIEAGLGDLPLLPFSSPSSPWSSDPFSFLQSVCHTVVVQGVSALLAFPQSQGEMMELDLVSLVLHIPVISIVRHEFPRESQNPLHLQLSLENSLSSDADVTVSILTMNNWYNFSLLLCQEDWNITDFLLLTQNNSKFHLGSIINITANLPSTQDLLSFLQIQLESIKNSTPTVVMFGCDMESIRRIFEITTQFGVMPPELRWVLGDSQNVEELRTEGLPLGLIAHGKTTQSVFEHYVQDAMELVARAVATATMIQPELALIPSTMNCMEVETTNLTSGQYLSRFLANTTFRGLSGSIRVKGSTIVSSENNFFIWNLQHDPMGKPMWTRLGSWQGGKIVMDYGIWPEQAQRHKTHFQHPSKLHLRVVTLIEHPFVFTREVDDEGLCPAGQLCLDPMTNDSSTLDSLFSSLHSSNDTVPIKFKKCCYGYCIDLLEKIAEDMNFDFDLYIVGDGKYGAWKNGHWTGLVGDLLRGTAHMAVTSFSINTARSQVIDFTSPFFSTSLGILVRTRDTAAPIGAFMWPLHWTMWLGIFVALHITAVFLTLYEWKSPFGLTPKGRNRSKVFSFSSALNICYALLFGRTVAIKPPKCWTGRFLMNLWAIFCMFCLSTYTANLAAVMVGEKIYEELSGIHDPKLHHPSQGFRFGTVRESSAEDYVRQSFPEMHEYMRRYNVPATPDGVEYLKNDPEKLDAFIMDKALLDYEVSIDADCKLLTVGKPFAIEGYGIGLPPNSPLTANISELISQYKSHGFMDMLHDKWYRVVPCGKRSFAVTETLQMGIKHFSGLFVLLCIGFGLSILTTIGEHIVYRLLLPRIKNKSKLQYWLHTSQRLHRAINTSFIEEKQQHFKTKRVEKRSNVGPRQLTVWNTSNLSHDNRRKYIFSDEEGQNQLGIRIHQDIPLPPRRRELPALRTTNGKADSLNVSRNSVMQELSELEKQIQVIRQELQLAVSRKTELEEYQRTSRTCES

For COc1ccc(OCC(c2ccc(OC)cc2)N2Cc3ccc(Cl)cc3C2=O)cc1 (centres unmarked) [EU1180-516, 6-Chloro-2-(2-(4-methoxyphenoxy)-1-(4-methoxyphenyl)ethyl)isoindolin-1l-one], the “hGluN1^FA,TL/hGluN3A (100 × Idrug/Icontrol at 30 μM drug)” value was 44%.

Same assay, conditions: read-out: hGluN1^FA,TL/hGluN3A (100 × Idrug/Icontrol at 30 μM drug)

Compared with Cc1cccc(OCC(c2ccc(OC(C)C)cc2)N2Cc3ccc(F)cc3C2=O)n1 (centres unmarked) [EU1180-512, 6-fluoro-2-(1-(4-isopropoxyphenyl)-2-((6-methylpyridin-2-yl)oxy)ethyl)isoindolin-1-one], Cc1cccc(OCC(c2ccc(OC(C)C)cc2)N2Cc3cc(F)ccc3C2=O)n1 (centres unmarked) [EU1180-513, 5-fluoro-2-(1-(4-isopropoxyphenyl)-2-((6-methylpyridin-2-yl)oxy)ethyl)isoindolin-1-one] is higher in remaining activity at 30 µM: 36% for the first, 87% for the second.

First: Cc1cccc(OCC(c2ccc(OC(C)C)cc2)N2Cc3ccc(Br)cc3C2=O)n1 (centres unmarked) [EU1180-514, 6-bromo-2-(1-(4-isopropoxyphenyl)-2-((6-methylpyridin-2-yl)oxy)ethyl)isoindolin-1-one]
Second: Cc1cccc(OCC(c2ccc(OC(C)C)cc2)N2Cc3cc(Br)ccc3C2=O)n1 (centres unmarked) [EU1180-515, 5-bromo-2-(1-(4-isopropoxyphenyl)-2-((6-methylpyridin-2-yl)oxy)ethyl)isoindolin-1-one]
The remaining activity at 30 µM of the first is lower: 93% for the first, 100% for the second.

Going from COc1ccc(OCC(c2ccc(OC)cc2)N2Cc3cc(Cl)ccc3C2=O)cc1 (centres unmarked) [EU1180-517, 5-Chloro-2-(2-(4-methoxyphenoxy)-1-(4-methoxyphenyl)ethyl)isoindolin-1-one] to COc1ccc(OCC(c2ccc(OC)cc2)N2Cc3cc(Br)ccc3C2=O)cc1 (centres unmarked) [EU1180-519, 5-Bromo-2-(2-(4-methoxyphenoxy)-1-(4-methoxyphenyl)ethyl)isoindolin-1-one], the remaining activity at 30 µM falls from 92% to 90%.

Going from COc1ccc(OCC(c2ccc(OC)cc2)N2Cc3ccc(C(F)(F)F)cc3C2=O)cc1 (centres unmarked) [EU1180-518, 2-(2-(4-Methoxyphenoxy)-1-(4-methoxyphenyl)ethyl)-6-(trifluoromethyl)isoindolin-1-one] to COc1ccc(OCC(c2ccc(OC)cc2)N2Cc3ccc(F)cc3C2=O)cc1 (centres unmarked) [EU1180-522, 6-Fluoro-2-(2-(4-methoxyphenoxy)-1-(4-methoxyphenyl)ethyl)isoindolin-1-one], the remaining activity at 30 µM falls from 86% to 25%.

Compared with COc1ccc(OCC(c2ccc(OC)cc2)N2Cc3ccc(Br)cc3C2=O)cc1 (centres unmarked) [EU1180-520, 6-Bromo-2-(2-(4-methoxyphenoxy)-1-(4-methoxyphenyl)ethyl)isoindolin-1-one], COc1ccc(OCC(c2ccc(OC)cc2)N2Cc3cc(F)ccc3C2=O)cc1 (centres unmarked) [EU1180-521, 5-Fluoro-2-(2-(4-methoxyphenoxy)-1-(4-methoxyphenyl)ethyl)isoindolin-1-one] is lower in remaining activity at 30 µM: 64% for the first, 60% for the second.

Compared with COc1ccc(OCC(c2ccc(OC)c(OC)c2)N2Cc3ccc(C(F)(F)F)cc3C2=O)cc1 (centres unmarked) [EU1180-523, 2-(1-(3,4-Dimethoxyphenyl)-2-(4-methoxyphenoxy)ethyl)-6-(trifluoromethyl)isoindolin-1-one], COc1ccc(OCC(c2ccc(OC)c(OC)c2)N2Cc3ccc(F)cc3C2=O)cc1 (centres unmarked) [EU1180-529, 2-(1-(3,4-Dimethoxyphenyl)-2-(4-methoxyphenoxy)ethyl)-6-fluoroisoindolin-1-one] is lower in remaining activity at 30 µM: 104% for the first, 84% for the second.

Compared with COc1ccc(OCC(c2ccc(OC)c(OC)c2)N2Cc3cc(Cl)ccc3C2=O)cc1 (centres unmarked) [EU1180-524, 5-Chloro-2-(1-(3,4-dimethoxyphenyl)-2-(4-methoxyphenoxy)ethyl)isoindolin-1-one], COc1ccc(OCC(c2ccc(OC)c(OC)c2)N2Cc3ccc(Cl)cc3C2=O)cc1 (centres unmarked) [EU1180-525, 6-Chloro-2-(1-(3,4-dimethoxyphenyl)-2-(4-methoxyphenoxy)ethyl)isoindolin-1-one] is lower in remaining activity at 30 µM: 102% for the first, 94% for the second.

Going from COc1ccc(OCC(c2ccc(OC)c(OC)c2)N2Cc3cc(Br)ccc3C2=O)cc1 (centres unmarked) [EU1180-526, 5-Bromo-2-(1-(3,4-dimethoxyphenyl)-2-(4-methoxyphenoxy)ethyl)isoindolin-1-one] to COc1ccc(OCC(c2ccc(OC)c(OC)c2)N2Cc3ccc(Br)cc3C2=O)cc1 (centres unmarked) [EU1180-527, 6-Bromo-2-(1-(3,4-dimethoxyphenyl)-2-(4-methoxyphenoxy)ethyl)isoindolin-1-one], the remaining activity at 30 µM falls from 101% to 94%.

Going from COc1ccc(OCC(c2ccc(OC)c(OC)c2)N2Cc3cc(F)ccc3C2=O)cc1 (centres unmarked) [EU1180-528, 2-(1-(3,4-Dimethoxyphenyl)-2-(4-methoxyphenoxy)ethyl)-5-fluoroisoindolin-1-one] to COc1ccc(OCC(c2ccc(OC)cc2F)N2Cc3cc(F)ccc3C2=O)cc1 (centres unmarked) [EU1180-536, 5-Fluoro-2-(1-(2-fluoro-4-methoxyphenyl)-2-(4-methoxyphenoxy)ethyl)isoindolin-1-one], the remaining activity at 30 µM falls from 94% to 80%.

First: COc1ccc(OCC(c2ccc(OC)cc2F)N2Cc3ccccc3C2=O)cc1 (centres unmarked) [EU1180-530, 2-(1-(2-Fluoro-4-methoxyphenyl)-2-(4-methoxyphenoxy)ethyl)isoindolin-1-one]
Second: COc1ccc(OCC(c2ccc(OC)cc2F)N2Cc3cc(Cl)ccc3C2=O)cc1 (centres unmarked) [EU1180-532, 5-Chloro-2-(1-(2-fluoro-4-methoxyphenyl)-2-(4-methoxyphenoxy)ethyl)isoindolin-1-one]
The remaining activity at 30 µM of the first is lower: 41% for the first, 95% for the second.

First: COc1ccc(OCC(c2ccc(OC)cc2F)N2Cc3ccc(C(F)(F)F)cc3C2=O)cc1 (centres unmarked) [EU1180-531, 2-(1-(2-Fluoro-4-methoxyphenyl)-2-(4-methoxyphenoxy)ethyl)-6-(trifluoromethyl)isoindolin-1-one]
Second: COc1ccc(OCC(c2ccc(OC)cc2F)N2Cc3ccc(F)cc3C2=O)cc1 (centres unmarked) [EU1180-537, 6-Fluoro-2-(1-(2-fluoro-4-methoxyphenyl)-2-(4-methoxyphenoxy)ethyl)isoindolin-1-one]
The remaining activity at 30 µM of the first is higher: 99% for the first, 66% for the second.

Going from COc1ccc(OCC(c2ccc(OC)cc2F)N2Cc3ccc(Cl)cc3C2=O)cc1 (centres unmarked) [EU1180-533, 6-Chloro-2-(1-(2-fluoro-4-methoxyphenyl)-2-(4-methoxyphenoxy)ethyl)isoindolin-1-one] to COc1ccc(OCC(c2ccc(OC)cc2F)N2Cc3ccc(Br)cc3C2=O)cc1 (centres unmarked) [EU1180-535, 6-Bromo-2-(1-(2-fluoro-4-methoxyphenyl)-2-(4-methoxyphenoxy)ethyl)isoindolin-1-one], the remaining activity at 30 µM rises from 49% to 83%.

Compared with COc1ccc(OCC(c2ccc(OC)cc2F)N2Cc3cc(Br)ccc3C2=O)cc1 (centres unmarked) [EU1180-534, 5-Bromo-2-(1-(2-fluoro-4-methoxyphenyl)-2-(4-methoxyphenoxy)ethyl)isoindolin-1-one], CC(C)Oc1ccc(C(COc2ccc(OC(F)(F)F)cc2)N2Cc3ccc(Cl)cc3C2=O)cc1 (centres unmarked) [EU1180-540, 6-chloro-2-(1-(4-isopropoxyphenyl)-2-(4-(trifluoromethoxy)phenoxy)ethyl)isoindolin-1-one] is higher in remaining activity at 30 µM: 99% for the first, 100% for the second.

CC(C)Oc1ccc(C(COc2ccc(OC(F)(F)F)cc2)N2Cc3ccccc3C2=O)cc1 (centres unmarked) [EU1180-538, 2-(1-(4-isopropoxyphenyl)-2-(4-(trifluoromethoxy)phenoxy)ethyl)isoindolin-1-one] and CC(C)Oc1ccc(C(COc2ccc(OC(F)(F)F)cc2)N2Cc3ccc(C(F)(F)F)cc3C2=O)cc1 (centres unmarked) [EU1180-539, 2-(1-(4-isopropoxyphenyl)-2-(4-(trifluoromethoxy)phenoxy)ethyl)-6-(trifluoromethyl)isoindolin-1-one] are the same in remaining activity at 30 µM: 99% for the first, 99% for the second.
